# Laboratory results reported in patent publication US7034056B2, “Aryl and biaryl compounds having MCH modulatory activity” (Pharmacopeia Drug Discovery, inc., priority 2001, dated 2006).
# Where two headings read alike, the source gives them in different places.
# Molecular target: T1, hMCHR (MCH receptor) (Homo sapiens, UniProt Q99705)
# T1 construct: (or internally produced); host or cells: CHO (Chinese hamster ovary) cells, membrane preparation
# Assay: MCH Assay PCOP Protocol ([125I]-MCH SPA binding to hMCHR-CHO membranes);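 as to Activity (Ki range): A 0.4–50 nM B 51–500 nM C 501–2500 nM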
# Procedure: A reaction mixture of 10 μg hMCHR-CHO overexpressing membranes (from Receptor Biology, Inc., Beltsville, Md., or internally produced) and 100 μg/well WGA-SPA beads (from Amersham Pharmacia Biotech, Inc., Piscataway, N.J.)/100 μl was prepared in MCHR assay buffer (25 mM HEPES, pH 7.4, 10 mM NaCl, 10 mM MgCl2, 5 mM MnCl2, 0.1% BSA). […] The assay plates were shaken for 5 minutes on a plate shaker, then incubated for 2 hours before cpm/well were determined in a Microbeta Trilux counter (from PerkinElmer Wallac, Inc., Gaithersburg, Md.).
# [1] = [125I]-MCH 0.5 nM, hMCHR-CHO membranes, read-out: Activity (ranges of Ki values)
# [2] = [125I]-MCH binding to hMCHR-CHO membranes, class symbols for ranges of Ki, read-out: Activity (Ki range)
# [3] = [125I]-MCH SPA binding, hMCHR-CHO membranes, Ki class ranges, read-out: Activity (range of Ki)
# T1 sequence (Q99705 whole entry): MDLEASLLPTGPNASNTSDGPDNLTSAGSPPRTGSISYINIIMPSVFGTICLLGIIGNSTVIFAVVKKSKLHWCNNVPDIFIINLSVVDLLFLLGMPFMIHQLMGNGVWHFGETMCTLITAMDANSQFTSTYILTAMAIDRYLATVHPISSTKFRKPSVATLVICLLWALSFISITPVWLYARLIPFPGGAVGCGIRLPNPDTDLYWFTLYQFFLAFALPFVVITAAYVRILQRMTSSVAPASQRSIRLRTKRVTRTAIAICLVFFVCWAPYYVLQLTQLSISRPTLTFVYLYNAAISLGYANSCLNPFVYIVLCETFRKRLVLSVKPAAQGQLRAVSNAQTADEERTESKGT
SMILES,Ki [1],Ki [2],also measured
COc1cc(CNCCC(CNC(=O)Nc2cccc(C(F)(F)F)c2)c2ccc(Cl)c(Cl)c2)cc(OC)c1OC (stereo not shown) [Example 132],51 to 500 nM,,
O=C(NCC(CCNC1CCCC1)c1ccc(-c2ccc(C(F)(F)F)cc2)cc1)Nc1cc(Cl)cc(Cl)c1 (stereo not shown) [Example 250],,51 to 500 nM,
O=C(NCC(CCN1CCCC1CN1CCCC1)c1ccc(Cl)c(Cl)c1)c1cc(C(F)(F)F)cc(C(F)(F)F)c1 (stereo not shown) [Example 418],,,Ki [3]: 501 to 2500 nM
O=C(NCC(CCN1CCCCC1)c1ccc(Cl)c(Cl)c1)c1ccc(F)cc1 (stereo not shown) [Example 455],,,Ki [3]: 501 to 2500 nM
N#Cc1cccc(-c2ccc(C(CCNC3CC3)CNC(=O)Nc3cccc(F)c3)cc2)c1 (stereo not shown) [Example 54],0.4 to 50 nM,,
O=C(NCC(CCN1CCC(NC(=O)c2cccs2)C1)c1ccc(Cl)c(Cl)c1)Nc1cc(Cl)cc(Cl)c1 (stereo not shown) [Example 190],51 to 500 nM,,
CC1CCCCN1CCC(CNC(=O)c1cc(C(F)(F)F)cc(C(F)(F)F)c1)c1ccc(Cl)c(Cl)c1 (stereo not shown) [Example 419],,,Ki [3]: 501 to 2500 nM
Cc1cc(C)cc(C(=O)NCC(CCN2CCCCC2)c2ccc(Cl)c(Cl)c2)c1 (stereo not shown) [Example 456],,,Ki [3]: 501 to 2500 nM
O=C(NCC(CCNC1CCC1)c1ccc(Cl)c(Cl)c1)c1cc(C(F)(F)F)cc(C(F)(F)F)c1 (stereo not shown) [Example 398],,501 to 2500 nM,
COCC(=O)NC1CCN(CCC(CNC(=O)Nc2cc(Cl)cc(Cl)c2)c2ccc(Cl)cc2)C1 (stereo not shown) [Example 194],51 to 500 nM,,
O=C(NCC(CCNC1CCCC1)c1ccc(Cl)c(Cl)c1)Nc1ccc(Cl)c(Cl)c1 (stereo not shown) [Example 279],,51 to 500 nM,
O=S(=O)(NCC(CCNCCc1c[nH]c2ccccc12)c1ccc(Cl)cc1)c1ccc(Cl)c(Cl)c1 (stereo not shown) [Example 342],,501 to 2500 nM,
O=C(NCC(CCN1CCCCC1)c1ccc(Cl)c(Cl)c1)Nc1cc(C(F)(F)F)cc(C(F)(F)F)c1 (stereo not shown) [Example 444],,,Ki [3]: 51 to 500 nM
Cc1ccc(C(CCN2CCC(N)CC2)CNC(=O)Nc2cc(Cl)cc(Cl)c2)cc1 (stereo not shown) [Example 324],,501 to 2500 nM,
O=C(NCC(CCNC1CCC1)c1ccc(Cl)c(Cl)c1)Nc1ccc(Cl)c(Cl)c1 (stereo not shown) [Example 282],,51 to 500 nM,
CCNC(=O)NC1CCN(CCC(CNC(=O)Nc2cc(Cl)cc(Cl)c2)c2ccc(C)cc2)CC1 (stereo not shown) [Example 327],,501 to 2500 nM,
COc1cc(CNCCC(CNC(=O)Nc2ccc(F)c([N+](=O)[O-])c2)c2ccc(Cl)c(Cl)c2)cc(OC)c1OC (stereo not shown) [Example 125],51 to 500 nM,,

# Second part, led by results:
Ki [1],Ki [2],SMILES,also measured
501 to 2500 nM,,CC(=O)NC1CCN(CCC(CNC(=O)Nc2cc(Cl)cc(Cl)c2)c2ccc(C)cc2)C1 (stereo not shown) [Example 215],
,501 to 2500 nM,O=C(NCC(CCN1CCC(N2CCCCC2)CC1)c1ccc(Cl)c(Cl)c1)Nc1ccc(F)cc1 (stereo not shown) [Example 374],
,51 to 500 nM,O=C(NCC(CCNCCc1c[nH]c2ccccc12)c1ccc(Cl)cc1)Nc1cc(C(F)(F)F)cc(C(F)(F)F)c1 (stereo not shown) [Example 330],
,501 to 2500 nM,CCOC(=O)N1CCC(NCCC(CNC(=O)Nc2ccc(F)c([N+](=O)[O-])c2)c2ccc(Cl)c(Cl)c2)CC1 (stereo not shown) [Example 264],
501 to 2500 nM,,"O=C(NCC(CCNC1CCCC1)c1ccc(Cl)c(Cl)c1)c1cc(C(F)(F)F)cc(C(F)(F)F)c1 (racemic) [Example 20, (R,S)-N-[4-Cyclopentylamino-2-(3,4-dichloro-phenyl)-butyl]-3,5-bis-trifluoromethyl-benzamide]",
501 to 2500 nM,,CS(=O)(=O)NC1CCN(CCC(CNC(=O)Nc2cc(Cl)cc(Cl)c2)c2ccc(Cl)cc2)C1 (stereo not shown) [Example 204],
,501 to 2500 nM,O=C(NCC(CCN1CCC(N2CCCCC2)CC1)c1ccc(Cl)c(Cl)c1)Nc1ccc(Br)cc1 (stereo not shown) [Example 326],
501 to 2500 nM,,CN(C)CCCNCCC(CNC(=O)Nc1cc(Cl)cc(Cl)c1)c1cccc(-c2ccc(F)c(Cl)c2)c1 (stereo not shown) [Example 170],
,501 to 2500 nM,COc1ccc2[nH]cc(CCNCCC(CNC(=O)c3cc(C(F)(F)F)cc(C(F)(F)F)c3)c3ccc(Cl)c(Cl)c3)c2c1 (stereo not shown) [Example 396],
51 to 500 nM,,CN(C)CCC(CNC(=O)c1ccc(F)c(F)c1)c1ccc(-c2cccc(C#N)c2)cc1 (stereo not shown) [Example 67],
,501 to 2500 nM,CC(C)OCCCNCCC(C(=O)NCc1cc(C(F)(F)F)cc(C(F)(F)F)c1)c1ccc(Cl)c(Cl)c1 (stereo not shown) [Example 384],
